13 compounds from ChEMBL document CHEMBL1201862, “PubChem BioAssay data set” (2004) can be followed below.

Some test systems named below: SNB-19; CCRF-CEM; 786-0; IGROV-1; A549; SK-MEL-28; UACC-257; NCI-H522; OVCAR-3; TK-10; UACC-62; EKVX; SNB-75; Malme-3M; SF-295; A498; SK-MEL-5.
What all share (assay): inhibition of tumour cell growth, NCI panel, 48 h

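Method: 48-hour compound exposure of cells in 96-well plates, five concentrations, linear interpolation of endpoints. Here, GI50 denotes the concentration required for 50% inhibition of growth.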 Active and inactive are the calls of the source. No stated cut-off is given here; in the data, active = GI50 up to about 1.1 µM and inactive = higher.

Take `O=S(=O)(c1ccccc1)C1CN2OC1(S(=O)(=O)c1ccccc1)CC21CCCCC1` (centres undefined): the GI50 with SNB-19, in the test with CCRF-CEM, with 786-0, in the test on IGROV-1, in the test with A549 and in the test on SK-MEL-28 was > 100 µM (inactive) each time. For the same compound, the GI50 with UACC-257 was > 100 µM (inactive); in the test with NCI-H522, 51.5 µM (inactive); with OVCAR-3, > 100 µM (inactive); in the test on TK-10, > 100 µM (inactive); in the test with UACC-62 it was > 100 µM (inactive); in the test with EKVX, > 100 µM (inactive). Moreover, the GI50 with SNB-75, in the test with Malme-3M and with SF-295 was > 100 µM (inactive) throughout.
For `N#CC(C(=O)/C(=N/NC(=O)c1ccccc1O)C(C#N)c1ccc(Cl)cc1)c1ccc(Cl)cc1` (centres undefined), the GI50 in the test on SNB-19 was 15 µM (inactive); in the test with CCRF-CEM, 4.26 µM (inactive); with 786-0, 15.9 µM (inactive); in the test on A549 it was 24.6 µM (inactive); in the test on SK-MEL-28, 14.4 µM (inactive); in the test on UACC-257, 14.6 µM (inactive). The GI50 with NCI-H522 is > 10 µM (inactive); in the test on A498 it was 11.9 µM (inactive); in the test on OVCAR-3, 20 µM (inactive); with TK-10, 17.5 µM (inactive); in the test with EKVX, 22.4 µM (inactive); in the test with SNB-75 it was 3.56 µM (inactive). Further, the GI50 with Malme-3M is 12.4 µM (inactive); with SF-295, 16.4 µM (inactive).
Regarding `COc1ccc(/C=C/C(=O)c2sc(-n3nc(-c4ccccc4)cc3-c3ccccc3)nc2C)cc1OC`, the GI50 was 36.6 µM (inactive) in the test with SNB-19; 23.2 µM (inactive) in the test on CCRF-CEM; 36.4 µM (inactive) with 786-0; 24.3 µM (inactive) in the test on IGROV-1; 39.4 µM (inactive) in the test on A549; 37.9 µM (inactive) in the test on SK-MEL-28. In addition, the GI50 is 39.5 µM (inactive) with UACC-257; 19.5 µM (inactive) in the test on NCI-H522; 20.6 µM (inactive) in the test on OVCAR-3; 62.5 µM (inactive) in the test on TK-10; 13.9 µM (inactive) in the test with UACC-62; 26.1 µM (inactive) in the test on EKVX. The values for the GI50 in the test on Malme-3M and in the test on SF-295 were 65.8 µM (inactive) and 28.1 µM (inactive), respectively.
As for `COc1ccc2c(c1)CCC(OS(=O)(=O)CC13CCC(CC1=O)C3(C)C)C2=O` (centres undefined), the GI50 in the test with SNB-19 was 41.9 µM (inactive); with CCRF-CEM, 18.8 µM (inactive); with SK-MEL-5, 17.5 µM (inactive); in the test on 786-0 it was 18.8 µM (inactive); with A549 it was 26.4 µM (inactive); in the test with SK-MEL-28, 36.3 µM (inactive). In addition, the GI50 is 37.8 µM (inactive) in the test with UACC-257; 25.2 µM (inactive) with NCI-H522; 14.8 µM (inactive) with A498; 25.7 µM (inactive) in the test on OVCAR-3; 39.6 µM (inactive) in the test with TK-10; 16.9 µM (inactive) in the test on UACC-62. Further, the GI50 was > 100 µM (inactive) in the test with EKVX, 31.1 µM (inactive) with SNB-75 and 43 µM (inactive) in the test on Malme-3M.
With `O=C1OC(c2ccc(Cl)c3ccccc23)c2ccccc21` (centres undefined), the GI50 was > 100 µM (inactive) with SNB-19; 91.6 µM (inactive) in the test on CCRF-CEM; > 100 µM (inactive) with SK-MEL-5; 67.6 µM (inactive) with 786-0; > 100 µM (inactive) in the test on IGROV-1; 76.7 µM (inactive) in the test with A549. Also, the GI50 with SK-MEL-28 is > 100 µM (inactive); in the test with UACC-257, > 100 µM (inactive); in the test on NCI-H522 it was > 100 µM (inactive); with A498, > 100 µM (inactive); in the test on UACC-62, 63.2 µM (inactive); in the test with EKVX, > 100 µM (inactive). Moreover, the GI50 is 6.07 µM (inactive) in the test with SNB-75, > 100 µM (inactive) in the test with Malme-3M and 70.5 µM (inactive) in the test with SF-295.
On to `c1ccc(CN(Cn2cccn2)Cn2cccn2)nc1`, for which the GI50 in the test with SNB-19, in the test on CCRF-CEM, in the test on SK-MEL-5, with 786-0, in the test with A549 and in the test with SK-MEL-28 was > 100 µM (inactive) throughout. In addition, the GI50 is > 100 µM (inactive) with UACC-257; > 100 µM (inactive) in the test on NCI-H522; > 100 µM (inactive) in the test on A498; > 100 µM (inactive) with OVCAR-3; > 100 µM (inactive) in the test on TK-10; 43.8 µM (inactive) in the test on UACC-62. Besides, the GI50 in the test on EKVX, in the test with SNB-75 and in the test on SF-295 was > 100 µM (inactive) in each case.
Regarding `COc1cc(/C=C(\C#N)C(=O)c2ccccc2)ccc1O`, the GI50 was > 100 µM (inactive) with SNB-19; 82.8 µM (inactive) in the test with CCRF-CEM; > 100 µM (inactive) in the test with SK-MEL-5; > 100 µM (inactive) in the test with 786-0; > 100 µM (inactive) with IGROV-1; > 100 µM (inactive) in the test with A549. For the same compound, the GI50 was > 100 µM (inactive) in the test with SK-MEL-28; > 100 µM (inactive) in the test with UACC-257; > 100 µM (inactive) in the test on NCI-H522; > 100 µM (inactive) in the test with A498; 34.4 µM (inactive) with OVCAR-3; > 100 µM (inactive) with TK-10. Also, the GI50 with UACC-62, in the test on EKVX, with Malme-3M and in the test on SF-295 was > 100 µM (inactive) throughout.
As for `Nc1ccccc1C(=O)C(Br)C(Br)c1ccc2c(c1)OCO2` (centres undefined), the GI50 in the test with SNB-19 is 26.1 µM (inactive); in the test with CCRF-CEM, 26 µM (inactive); in the test with 786-0, 31 µM (inactive); in the test with IGROV-1 it was 28.6 µM (inactive); in the test with A549, 20.6 µM (inactive); in the test with SK-MEL-28, 23.4 µM (inactive). Further, the GI50 with UACC-257 was 19.1 µM (inactive); with NCI-H522 it was 18.5 µM (inactive); with A498, 24.4 µM (inactive); in the test with OVCAR-3 it was 16.7 µM (inactive); in the test with TK-10 it was 27.4 µM (inactive); in the test with UACC-62, 16.8 µM (inactive). In addition, the GI50 with EKVX was 21.3 µM (inactive); in the test with SNB-75, 20.9 µM (inactive); in the test with Malme-3M, 18.4 µM (inactive); in the test with SF-295 it was 27.6 µM (inactive).
In the case of `N#Cc1ccc2cc3c(cc2c1)OCO3`, the GI50 in the test with SNB-19 was 50.7 µM (inactive); with CCRF-CEM, > 100 µM (inactive); in the test on 786-0, > 100 µM (inactive); in the test on IGROV-1, > 100 µM (inactive); in the test with SK-MEL-28, > 100 µM (inactive); in the test with NCI-H522 it was > 100 µM (inactive). Further, the GI50 in the test on A498 is 28.4 µM (inactive); with OVCAR-3 it was > 100 µM (inactive); in the test on UACC-62 it was > 100 µM (inactive); with SNB-75, 26 µM (inactive); in the test on SF-295, > 100 µM (inactive).
Regarding `CC(C)N(C(C)C)P(OCCC#N)OC1CC(n2cnc3c(=O)[nH]cnc32)OC1COC(=O)NCCCCCCNC(=O)OC(C)(C)c1ccc(-c2ccccc2)cc1` (centres undefined), the GI50 in the test with SNB-19 was 21.7 µM (inactive); with CCRF-CEM, 18.5 µM (inactive); with SK-MEL-5, 24.8 µM (inactive); in the test on 786-0, 23 µM (inactive); in the test with IGROV-1, 17 µM (inactive); in the test on A549, 39.4 µM (inactive). Moreover, the GI50 in the test with SK-MEL-28 is 34.3 µM (inactive); in the test on UACC-257, 15.2 µM (inactive); in the test on NCI-H522, 15.6 µM (inactive); in the test with A498, > 100 µM (inactive); with TK-10, 24.2 µM (inactive); with UACC-62, 18.4 µM (inactive). The GI50 was > 100 µM (inactive) with EKVX, 24.3 µM (inactive) in the test with SNB-75, 32.2 µM (inactive) with Malme-3M and 52.1 µM (inactive) in the test on SF-295.
For the compound `COC(=O)C1CC/C(=N/C2c3ccccc3-c3ccccc32)N1` (centres undefined), the GI50 in the test on SNB-19 is > 100 µM (inactive); in the test with CCRF-CEM, 58.6 µM (inactive); in the test on 786-0, > 100 µM (inactive); in the test with IGROV-1, > 100 µM (inactive); in the test with A549, > 100 µM (inactive); in the test on SK-MEL-28, > 100 µM (inactive). In addition, the GI50 in the test on UACC-257 is > 100 µM (inactive); in the test on NCI-H522, 19.6 µM (inactive); in the test with A498 it was > 100 µM (inactive); in the test with OVCAR-3, 74.8 µM (inactive); with TK-10, > 100 µM (inactive); with UACC-62 it was 63 µM (inactive). The GI50 was > 100 µM (inactive) with EKVX, 58.6 µM (inactive) with SNB-75, > 100 µM (inactive) in the test on Malme-3M and > 100 µM (inactive) in the test on SF-295.
Take `CC(C)(C)C1CCC(CI)(N=[N+]=[N-])CC1` (centres undefined): the GI50 in the test on SNB-19, in the test with CCRF-CEM, in the test with SK-MEL-5, in the test with 786-0, in the test with IGROV-1 and in the test with A549 was > 100 µM (inactive) throughout. For the same compound, the GI50 in the test on UACC-257, in the test on NCI-H522, in the test on A498, in the test on OVCAR-3, in the test on TK-10 and with UACC-62 was > 100 µM (inactive) each time. Moreover, the GI50 in the test with EKVX, in the test with SNB-75, in the test on Malme-3M and in the test with SF-295 was > 100 µM (inactive) throughout.
Regarding `COc1ccc2c(c1)C1C(CO2)C(c2ccccc2)=NN1c1ccccc1` (centres undefined), the GI50 was > 100 µM (inactive) in the test with CCRF-CEM; > 100 µM (inactive) with SK-MEL-5; > 100 µM (inactive) in the test on 786-0; > 100 µM (inactive) with IGROV-1; > 100 µM (inactive) in the test with A549; 70.3 µM (inactive) in the test on SK-MEL-28. Also, the GI50 in the test on UACC-257, in the test with NCI-H522, in the test with A498, in the test with OVCAR-3, in the test with TK-10 and with EKVX was > 100 µM (inactive) each time. In addition, the GI50 was 0.441 µM (active) in the test with SNB-75, > 100 µM (inactive) in the test on Malme-3M and > 100 µM (inactive) with SF-295.
